Measurements taken from publication PMC8963254, “Effects of Lysine N-ζ-Methylation in Ultrashort Tetrabasic Lipopeptides (UTBLPs) on the Potentiation of Rifampicin, Novobiocin, and Niclosamide in Gram-Negative Bacteria” (Antibiotics, 2022).
In brackets after ≈: the same amount, converted by molar mass.

Experiments:
Assay in all cases: microbe, parasite or virus in culture
E. coli 94474 = format: cell-based, Escherichia coli; details: E. coli 94474 (mcr-1 +); for MIC: Escherichia coli, 18 h, read-out: MICs of various antibiotics
Description: (§1) The in vitro antibacterial activity of the UTBLPs was assessed against wild-type and clinically isolated bacterial strains. To obtain the MIC of the compounds, the microbroth dilution susceptibility assay was performed according to the Clinical and Laboratory Standards Institute (CLSI, Wayne, PA, USA) guidelines and as previously described. Briefly, the compounds at varying concentrations were incubated with bacterial inoculum (5 × 10^5 CFU/mL final concentration) at 37 °C for 18 h. Growth in the form of turbidity was confirmed using an EMax Plus microplate reader (Molecular Devices, San Jose, CA, USA) at 590 nm.

E. coli 94393 = format: cell-based, Escherichia coli; details: E. coli 94393 (mcr-1 +); for MIC: Escherichia coli, 18 h, read-out: MICs of various antibiotics
Description: as §1

[1] = system: P. aeruginosa PA262-101856; format: cell-based, Pseudomonas aeruginosa; details: P. aeruginosa 262-101856; for MIC: Pseudomonas aeruginosa, PA262101856, 18 h, read-out: MICs of various antibiotics
Description: as §1

[2] = system: P. aeruginosa PA259-96196; format: cell-based, Pseudomonas aeruginosa; details: P. aeruginosa 259-96196; for MIC: Pseudomonas aeruginosa, PA25996196, 18 h, read-out: MICs of various antibiotics
Description: as §1

A. baumannii AB92247 = format: cell-based, Acinetobacter baumannii; details: A. baumannii 92247; for MIC: Acinetobacter baumannii, AB92247, 18 h, read-out: MICs of various antibiotics
Description: as §1

A. baumannii AB027 = format: cell-based, Acinetobacter baumannii; details: A. baumannii AB027; for MIC: Acinetobacter baumannii, 18 h, read-out: MICs of various antibiotics
Description: as §1

E. cloacae 118564 = format: cell-based, Enterobacter cloacae; details: E. cloacae 118564; for MIC: Enterobacter cloacae, 18 h, read-out: MICs of various antibiotics
Description: as §1

K. pneumoniae 113250 = format: cell-based, Klebsiella pneumoniae; details: K. pneumoniae 113250; for MIC: Klebsiella pneumoniae, 18 h, read-out: MICs of various antibiotics
Description: as §1

## colistin [CST]
E. coli 94474
  MICs of various antibiotics: 16 µg/mL
E. coli 94393
  MICs of various antibiotics: 4 µg/mL
[1]
  MICs of various antibiotics: 1 µg/mL
[2]
  MICs of various antibiotics: 1 µg/mL
A. baumannii AB92247
  MICs of various antibiotics: 4 µg/mL
A. baumannii AB027
  MICs of various antibiotics: 0.25 µg/mL
E. cloacae 118564
  MICs of various antibiotics: > 16 µg/mL
K. pneumoniae 113250
  MICs of various antibiotics: > 16 µg/mL

## NCC[C@H](O)C(=O)N[C@@H]1C[C@H](N)[C@@H](O[C@H]2O[C@H](CN)[C@@H](O)[C@H](O)[C@H]2O)[C@H](O)[C@H]1O[C@H]1O[C@H](CO)[C@@H](O)[C@H](N)[C@H]1O [AMK, amikacin]
E. coli 94474
  MIC: 2 µg/mL (≈ 3.42 µM)
E. coli 94393
  MIC: 2 µg/mL (≈ 3.42 µM)
[1]
  MIC: > 64 µg/mL
[2]
  MIC: > 64 µg/mL
A. baumannii AB92247
  MIC: < 1 µg/mL
A. baumannii AB027
  MIC: > 64 µg/mL
E. cloacae 118564
  MIC: 2 µg/mL (≈ 3.42 µM)
K. pneumoniae 113250
  MIC: ≤ 1 µg/mL

## C[C@@H](O)[C@H]1C(=O)N2C(C(=O)O)=C(S[C@@H]3CN[C@H](C(=O)N(C)C)C3)[C@H](C)[C@H]12 [MER, meropenem]
E. coli 94474
  MIC: ≤ 0.03 µg/mL
E. coli 94393
  MIC: ≤ 0.03 µg/mL
[1]
  MIC: 32 µg/mL (≈ 83.4 µM)
[2]
  MIC: 1020 µg/mL (≈ 2670 µM)
A. baumannii AB92247
  MIC: 4 µg/mL (≈ 10.4 µM)
A. baumannii AB027
  MIC: 16 µg/mL (≈ 41.7 µM)
E. cloacae 118564
  MIC: 0.12 µg/mL (≈ 0.313 µM)
K. pneumoniae 113250
  MIC: ≤ 0.03 µg/mL

## CO/N=C(\C(=O)N[C@@H]1C(=O)N2C(C(=O)[O-])=C(C[N+]3(C)CCCC3)CS[C@H]12)c1csc(N)n1 [CPM, cefepime]
E. coli 94474
  MIC: ≤ 0.25 µg/mL
E. coli 94393
  MIC: ≤ 0.25 µg/mL
[1]
  MIC: 32 µg/mL (≈ 66.6 µM)
[2]
  MIC: > 64 µg/mL
A. baumannii AB92247
  MIC: 4 µg/mL (≈ 8.32 µM)
A. baumannii AB027
  MIC: > 128 µg/mL
E. cloacae 118564
  MIC: 0.25 µg/mL (≈ 0.52 µM)
K. pneumoniae 113250
  MIC: 1 µg/mL (≈ 2.08 µM)

## CO[C@@]1(NC(=O)Cc2cccs2)C(=O)N2C(C(=O)O)=C(COC(N)=O)CS[C@@H]21 [FOX, cefoxitin]
E. coli 94474
  MIC: 16 µg/mL (≈ 37.4 µM)
E. coli 94393
  MIC: 4 µg/mL (≈ 9.36 µM)
[1]
  MIC: > 32 µg/mL
[2]
  MIC: > 32 µg/mL
A. baumannii AB92247
  MIC: 32 µg/mL (≈ 74.9 µM)
E. cloacae 118564
  MIC: > 32 µg/mL
K. pneumoniae 113250
  MIC: 1 µg/mL (≈ 2.34 µM)

## Cc1nnc(SCC2=C(C(=O)O)N3C(=O)[C@@H](NC(=O)Cn4cnnn4)[C@H]3SC2)s1 [CFZ, cefazolin]
E. coli 94474
  MIC: 4 µg/mL (≈ 8.8 µM)
E. coli 94393
  MIC: 1 µg/mL (≈ 2.2 µM)
[1]
  MIC: > 128 µg/mL
[2]
  MIC: > 128 µg/mL
A. baumannii AB92247
  MIC: 128 µg/mL (≈ 282 µM)
A. baumannii AB027
  MIC: > 128 µg/mL
E. cloacae 118564
  MIC: > 128 µg/mL
K. pneumoniae 113250
  MIC: 1 µg/mL (≈ 2.2 µM)
